Measurements from paper PMC3530194 (Bioorganic & medicinal chemistry letters, 2012).

Tests used:
[1] = assay type: in vitro ADME, bovine
[2] = test system: hereditary inclusion body myopathy mouse model; settings: cited from earlier work
[3] = cited from earlier work
LS174T indicator cells = assay type: cell-based; settings: human cells (LS174T), over the first 12 hours; Fig. 3A
[4] = Fig. 2E; for surface expression of azido-modified sialic acids: after 24 hours of FBS pre-treatment; for loss of surface azido-sialic acid signal: first four hours of FBS treatment
[5] = assay type: in vitro ADME, bovine; settings: after 24 hours of serum pretreatment; Fig. 2D

| Compound | increased sialic acid production compared among analogs (LS174T indicator cells) | surface expression of azido-modified sialic acids [4] | loss of surface azido-sialic acid signal [4] | other results |
| --- | --- | --- | --- | --- |
| CC(=O)N[C@@H]1C(OC(C)=O)O[C@H](COC(C)=O)[C@@H](OC(C)=O)[C@@H]1OC(C)=O (stereo partly shown) [Ac4ManNAc, reference compound] |  |  |  | serum inactivation of analog, read as sialic acid production in indicator cells ([1]; FBS (100% serum) pre-incubation, Fig. 2A): refractory to serum inactivation; time of peak sialic acid production after administration [2]: peaked as soon as four hours after administration |
| CCCC(=O)OC1O[C@H](CO)[C@@H](OC(=O)CCC)[C@H](OC(=O)CCC)[C@@H]1NC(C)=O (stereo partly shown) [1,3,4-O-Bu3ManNAc] | statistically identical levels |  |  | reduction in analog-enhanced sialic acid production ([1]; after four hours of serum treatment, Fig. 2C): only a relatively minor reduction; side effects such as cytotoxicity [3]: negligible |
| CCCC(=O)OC[C@H]1OC(OC(=O)CCC)[C@@H](NC(=O)CN=[N+]=[N-])[C@@H](OC(=O)CCC)[C@@H]1OC(=O)CCC (stereo partly shown) [Bu4ManNAz] |  | reduction, but not complete reversal | refractory to a loss of signal |  |
| CCCC(=O)OC[C@H]1OC(O)[C@@H](NC(C)=O)[C@@H](OC(=O)CCC)[C@@H]1OC(=O)CCC (stereo partly shown) [3,4,6-O-Bu3ManNAc] | statistically identical levels |  |  | loss of analog-enhanced cell growth inhibition [5]: complete reversal |
| CCCC(=O)OCC1OC(OC(=O)CCC)C(NC(C)=O)[C@@H](OC(=O)CCC)[C@@H]1OC(=O)CCC (stereo partly shown) [Bu4ManNAc] | statistically identical levels |  |  | reversion of analog-enhanced sialic acid production in indicator cells ([1]; lower concentrations of FBS (10% or 25%), Fig. 2B): did not result in a statistically significant reversion |
| CC(=O)OC[C@H]1OC(OC(C)=O)[C@@H](NC(=O)CN=[N+]=[N-])[C@@H](OC(C)=O)[C@@H]1OC(C)=O (stereo partly shown) [Ac4ManNAz, reference compound] |  | reduction, but not complete reversal | refractory to a loss of signal |  |
